From patent publication US20060166360A1, “Compositions, solutions, and methods used for transplantation” (The General Hospital Corporation, priority 2002, published 2006)
Entries after “also recorded” stand apart in the source; their conditions may differ.

Key:
HSP72 and HO-1 = assay: Western blot of HSP72 and HO-1 in hepatocytes, CD4+ and CD8+ T cells of donor fatty liver; format: in vivo, rat; settings: at time of harvesting; GdCl3 20 mg/kg i.v. 48 and 24 hours before harvesting
Method: (§1) Donor animals were divided into three groups; heat shock preconditioning (HPc) group, sham HPc (Sham) group, and gadolinium chloride (GdCl3) group. In the HPc group, rats were anesthetized and placed in a waterproof bag that was then immersed in a 43° C. water bath to elevate the core body temperature (measured via a rectal digital thermometer) to 42-42.5° C. Animals were maintained at that temperature for 10 min and then removed from the warm bath. Animals then received 10 ml/kg intraperitoneal saline injection and were allowed to recover with free access to food and water. Animals in the Sham and GdCl3 groups underwent the same procedures except that they were immersed in a 37° C. bath (sham HPc). In the GdCl3 group, Kupffer cell deactivation was achieved by two 20 mg/kg GdCl3 (Sigma, St. Louis, Mo.) intravenous injection 48 and 24 hours before donor liver harvesting. In the Sham and HPc groups, sterile nonpyrogenic saline was used as instead of GdCl3 solution. Donor livers were harvested 24 hours after HPc or sham HPc. In some experiments, rats were pretreated with 5 mg/kg i.m. Cyclosporine A (CyA; Sigma) 6 hours before donor liver harvesting.
Donor rats were sacrificed up to 240 hours after HPc. […] Protein signals were visualized by chemiluminescence (Pierce, Rockford, Ill.) and recorded on a GS282 Scanner (BioRad, Hercules, Calif.).

[1] = test system: liver I/R injury in steatotic liver transplantation; assay: Serum ALT after fatty liver transplantation; format: in vivo, rat; settings: donor GdCl3 pretreatment
Method: as §1
Isogenic orthotopic liver transplantation was performed as described by Kamada and Calne (Kamada et al., Transplantation 28:47-50, 1979). Donor livers were harvested 3, 6, 24, 48, or 72 hours after HPc. Briefly, the bile duct was cannulated with a short intraluminal polyethylene stent. […] The infrahepatic and suprahepatic vena cava, including part of the diaphragm, were transected. […] For survival studies, the animals were returned to standard housing facilities and monitored for up to one week. […]
(§2) To assess liver injury, alanine aminotransferase (ALT) was measured in serum samples using a commercially available kit (Sigma). TNF-α, IL-10, IL-4, IL-12, and IFN-γ levels in serum and cell culture supernatant were determined by Enzyme-linked immunosorbent assay (ELISA). […]

[2] = test system: transplanted fatty livers; assay: Histology of transplanted fatty livers; format: in vivo, rat; settings: 3 hours after transplantation, compared to Sham group livers
Method: as §1, with “In some experiments, rats were pretreated with 5 mg/kg i.m. Cyclosporine A (CyA; Sigma) 6 hours before donor liver harvesting.” left out
(§3) Isogenic orthotopic liver transplantation was performed as described by Kamada and Calne (Kamada et al., Transplantation 28:47-50, 1979). […] For survival studies, the animals were returned to standard housing facilities and monitored for up to one week. […]

[3] = test system: IL-12p70, TNF-α and IL-10; assay: Serum cytokine levels (ELISA) after fatty liver transplantation; format: in vivo, rat; settings: donor GdCl3 pretreatment
Method: as §1, with “In the Sham and HPc groups, sterile nonpyrogenic saline was used as instead of GdCl3 solution. Donor livers were harvested 24 hours after HPc or sham HPc. In some experiments, rats were pretreated with 5 mg/kg i.m. Cyclosporine A (CyA; Sigma) 6 hours before donor liver harvesting.” left out
as §3, §2

[4] = test system: intrahepatic neutrophil accumulation; assay: Myeloperoxidase content of liver tissue (neutrophil accumulation) after transplantation; format: in vivo, rat
Method: Donor animals were divided into three groups; heat shock preconditioning (HPc) group, sham HPc (Sham) group, and gadolinium chloride (GdCl3) group. In the HPc group, rats were anesthetized and placed in a waterproof bag that was then immersed in a 43° C. water bath to elevate the core body temperature (measured via a rectal digital thermometer) to 42-42.5° C. Animals were maintained at that temperature for 10 min and then removed from the warm bath. Animals then received 10 ml/kg intraperitoneal saline injection and were allowed to recover with free access to food and water. Animals in the Sham and GdCl3 groups underwent the same procedures except that they were immersed in a 37° C. bath (sham HPc). […]
as §3
The presence of myeloperoxidase (MPO), enzyme specific for neutrophil (and some macrophages), was used as an index of intrahepatic neutrophil accumulation. […] The change in absorbance was measured by spectrophotometry at 450 nm. One unit of MPO activity was defined as the quantity of enzyme degrading 1 μM peroxide per minute at 25° C. per gram of tissue.

recipient rats = assay: Survival of recipient rats after fatty liver transplantation; format: in vivo, rat; settings: up to 1 week after transplantation, vs Sham group
Method: as §1, with “In some experiments, rats were pretreated with 5 mg/kg i.m. Cyclosporine A (CyA; Sigma) 6 hours before donor liver harvesting.” left out
as §3

[5] = test system: liver CD4+ and CD8+ T cells; assay: Flow cytometry of liver T cells after transplantation; format: in vivo, rat; settings: for CD3+CD4+ relative number of T cells in the liver / CD3+CD8+ relative number of T cells in the liver: mean ± SD
Method: as §1
Three hours or 24 hours after liver transplantation, transplanted liver were perfused with sterile PBS through the portal vein to wash out all remaining peripheral blood and then meshed with stainless steel mesh. After the coarse pieces were removed by centrifugation at 50 g for 1 min, the cell suspensions were again centrifuged, resuspended in 8 mL of 45% Percoll (Sigma), and layered on 5 mL of 67.5% Percoll. The gradients were centrifuged at 600 g at 20° C. for 20 min. Lymphocytes at the interface were harvested and washed twice with PBS. CD4^+ or CD8^+ T cells were purified by Rat T cell CD4 or CD8 column kit (R&D systems, Minneapolis, […].) from the harvested liver lymphocytes. The purity of sorted cells was more than 95%.
For 3-color analysis, liver lymphocytes were incubated with saturating amounts of phycoerythrin-conjugated anti-rat CD3α mAb (Pharmingen, San Diego, Calif.) and fluorescein isothiocyanate-conjugated anti-rat CD4 mAb (Pharmingen) for 30 min. Cells were analyzed with a FACSCalibur flow cytometer (Becton Dickinson, San Jose, Calif.). We carefully gated cells by forward and side light scattering for the liver lymphocytes. The data were analyzed using CyQuest software (Becton Dickinson).

IFN-γ mRNA = assay: RT-PCR of IFN-γ mRNA in purified liver T cells after transplantation; format: in vivo, rat; settings: 24 hours after transplantation; donor GdCl3 pretreatment
Method: as §1
Three hours or 24 hours after liver transplantation, transplanted liver were perfused with sterile PBS through the portal vein to wash out all remaining peripheral blood and then meshed with stainless steel mesh. […]

liver CD4+ T cells = assay: IFN-γ production by liver CD4+ T cells on anti-CD3 mAb-coated plates (ELISA); format: cell-based, rat; settings: 24 hours after transplantation; donor GdCl3 pretreatment
Method: as §1
Liver lymphocytes were obtained by the same method previously described. […] IFN-γ and IL-4 levels in the culture supernatants were determined by ELISA.

steatotic hepatocytes = assay: Defatting of steatotic cultured hepatocytes with defatting media; format: cell-based, rat; settings: for effect on the defatting process (fat reduction): agent added in high insulin containing media; for effect on the defatting process (lipid removal): agent added in low insulin-containing medium
Method: It has previously been shown that collagen-sandwiched adult rat hepatocytes which are seeded and maintained in standard hepatocyte culture medium and then exposed to either rat or human plasma become severely steatotic within 24 hours with a concomitant reduction in liver-specific functions (Matthew et al., Biotechnol. Bioeng. 51: 100-111, 1995; Stefanovich et al., J. Surg. Res. 66: 57-63, 1996).
In the next set of experiments, we induced steatosis in hepatocytes by exposing them to high insulin levels followed by plasma for 2 days, and attempted to defat them using the following conditions: plasma supplemented with amino acids and low insulin levels; culture medium containing high insulin ([…]); culture medium containing low insulin (50 μU/mL) levels. We then measured the fraction of remaining triglycerides after 1 and 2 days of treatment. […] The triglyceride removal kinetic data in Table 2 was used to calculate a defatting rate for each defatting condition. For this purpose, the fraction of initial triglyceride remaining was plotted as a function of time on a semi-log plot, which yielded linear curves (not shown). The slopes of these lines, which correspond to the first order rate of decay or triglyceride clearance from the cells during defatting, are shown in Table 2 for each defatting condition tested. From these values, we can predict the fraction of intracellular lipid remaining after any treatment time using the simple equation: Triglyceride Fraction Remaining=100e^−[RateConstant][TreatmentTime] (equation 1)

Compound	HSP72 and HO-1 expression in hepatocytes, CD4+ and CD8+ T cells (HSP72 and HO-1)	serum ALT levels ([1]; 3 hours after transplantation, 12 hours cold preservation)	liver injury ([1]; 24 hours after transplantation)	protection against I/R injury by phase ([1]; acute (3 hours) and subacute (24 hours) phase)	hemorrhagic injury (histology) [2]	serum IL-12, TNF-α and IL-10 levels ([3]; 3 hours after transplantation)	serum TNF-α levels ([3]; 24 hours after transplantation)	MPO levels of liver tissue ([4]; 3 hours after transplantation)	MPO levels of liver tissue / neutrophil accumulation ([4]; 24 hours after transplantation)	recipient survival rate (recipient rats)	CD3+CD4+ relative number of T cells in the liver ([5]; 3 hr after transplantation)	CD3+CD8+ relative number of T cells in the liver ([5]; 3 hr after transplantation)	CD3+CD4+ relative number of T cells in the liver ([5]; 24 hr after transplantation)	CD3+CD8+ relative number of T cells in the liver ([5]; 24 hr after transplantation)	numbers of CD3+ CD8+ cells in the liver between groups ([5]; any stage following transplantation)	expression level of IFN-γ mRNA in isolated CD3+ CD4+ cells (IFN-γ mRNA)	expression level of IFN-γ mRNA in isolated CD3+ CD8+ cells (IFN-γ mRNA)	IFN-γ production by liver CD4+ T cells (liver CD4+ T cells)	effect on the defatting process (fat reduction) (steatotic hepatocytes)	effect on the defatting process (lipid removal) (steatotic hepatocytes)
[Cl][Gd]([Cl])[Cl] [GdCl3, gadolinium chloride]	neither HSP72 nor HO-1 was detected	significantly lower than that of Sham group	did not suppress liver injury	only protected I/R injury in the acute phase	reduced hemorrhagic injury	moderated the initial increase in IL-12, TNF-α, and IL-10 significantly; also recorded: suppressed; also recorded: prevented the serum release of IL-12, TNF-α, and IL-10	not significantly different from that of liver controls	almost similar with no significant difference	no difference between the Sham group and the GdCl3-treated group; also recorded: did not suppress liver injury or neutrophil accumulation	no significant difference; also recorded: did not improve the recipient survival rate	8.4 ± 2.7 ×10^5	4.2 ± 1.2 ×10^5	7.2 ± 2.2 ×10^5	5.6 ± 2.3 ×10^5	no difference	much higher than that from HPc group	remained low in all three groups	did not suppress activation of or IFN-γ production	–	–
leptin	–	–	–	–	–	–	–	–	–	–	–	–	–	–	–	–	–	–	Some fat-reducing effects were seen	did not further enhance lipid removal
hepatocyte growth factor	–	–	–	–	–	–	–	–	–	–	–	–	–	–	–	–	–	–	Some fat-reducing effects were seen	did not further enhance lipid removal
